Data set [1] has as its system human-derived tracheal/bronchial epithelial cells (EpiAirway Tissue Model). Kind of data set: Transepithelial electrical resistance (TER) of an epithelial cell monolayer. The class given is cell-based. Particulars: for activity at 1000 µM: Homo sapiens, Epithelial cell, 1 h, read-out: Mean % of Original TER Value. The protocol: Inserts are feed for each day of recovery. TER measurements were accomplished using the Endohm-12 Tissue Resistance Measurement Chamber connected to the EVOM Epithelial Voltohmmeter (World Precision Instruments, Sarasota, Fla.) with the electrode leads. The electrodes and a tissue culture blank insert were equilibrated for at least 20 minutes in MatTek medium with the power off prior to checking calibration. The background resistance was measured with 1.5 ml media in the Endohm tissue chamber and 300 μl media in the blank insert. The top electrode was adjusted so that it was close to, but not making contact with, the top surface of the insert membrane. Background resistance of the blank insert was about 5-20 ohms. […] TER values are a function of the surface area of the tissue. […] By this method of calculation, TER will be expressed as both Ohms*cm2 and percent original TER value. […] Several different lipid types (see Table 1) were screened to select for lipids that are capable of enhancing the permeation of a biological agent across an epithelial cell monolayer. […] A reduction in TER correlates with the ability to enhance the permeation of a molecule and biological agent across an epithelia.

Data set [2] has the same test system. Nature of the data set: in vitro. The procedure: Normal, human-derived tracheal/bronchial epithelial cells will serve as the model cell system for assessing the lipids listed in Table 1. The cells are supplied by MatTek Corp. (Ashland, Mass.) as the EpiAirway™ Tissue Model. The cells are provided as a confluent monolayer on a Millipore Milicell-CM cell culture insert with a pore size of 0.4 μM, inner diameter of 0.8 cm and surface area of 0.6 cm^2 and comprised of transparent hydrophilic Teflon (PTFE). Upon receipt, the membranes are cultured in 1 ml basal media (phenol red-free and hydrocortisone-free Dulbecco's Modified Eagle's Media (DMEM) at 37° C./5% CO2 for 24-48 hours before use. Inserts are feed for each day of recovery.
The amount of cell death was assayed by measuring the loss of lactate dehydrogenase (LDH) from the cells using a CytoTox 96 Cytotoxicity Assay Kit (Promega Corp., Madison, Wis.). A treatment of 1% Octylphenolpoly(ethyleneglycolether)x (Triton X-100™) diluted in PBS was used as a lysis control. One percent Triton X-100™ mediated cell lysis was normalized to 100%. For basal-lateral LDH levels, triplicates of 50 μl of the basal media were loaded into a 96-well assay plate. For apical LDH levels, 150 μl of Epi-Cm was added to the apical side of each chamber and mixed by pipeting. One hundred and fifty microliters was then removed and diluted 2-fold prior to performing the LDH assay. All apical LDH assay were performed in triplicate and with 50 μl of the diluted test solution. Fresh, cell-free culture medium will be used as a blank. Total LDH levels were determined by lysing cells in a final concentration of 0.9% Triton-X100™. Fifty microliters of substrate solution was added to each well and the plates incubated for 30 minutes at room temperature in the dark. Following incubation, 50 μl of stop solution was added to each well and the plates read on an optical density plate reader at […]. Cytotoxicity was expressed as a percentage calculated by subtracting the average absorbance of the PBS control wells as the endogenously released LDH level and expressing that value relative to the average Triton-X100 control, which represents total LDH content. [formula] Osmolality
For the instant application, phosphate buffered saline (PBS) served as a negative control for both the TER assay and LDH (cytotoxicity) assay. […] TER measurements and LDH levels were taken immediately after a one hour treatment of the cultured cells with each lipid, unless specified otherwrise.
TER reduction was expressed as the percent decrease in TER value from time zero to one hour post-treatment. Thus, greater percent reduction in TER represents less electrical resistance across the epithelial cell monolayer and consequently greater epithelial cell permeation. Cytotoxicity (LDH levels) for each lipid was expressed as a percent of the LDH levels measured after Triton-X100 treatment of the cells. Triton-X100™ LDH levels were normalized to 100%.

Data set [3] has the same test system. Kind of data set: FITC-Dextran permeation assay across epithelial cell monolayer. The class given is cell-based. Particulars: for Mean % FD3 Permeation: FITC-dextran 3000 (Table 4). The procedure:
Each tissue insert was placed in an individual well containing 1 ml of MatTek basal media. On the apical surface of the inserts, 20 μl of test formulation was applied according to study design, and the samples were placed on a shaker (˜100 rpm) for 1.5 hours at 37° C. FITC-labeled dextran solution was added to inserts apically and a fluorescence measurement was taken from the basolateral media after the incubation period. Two hundred microliters of the basal media for each test formulation was transferred to a dark-wall fluorescent reading plate. Each test formulation was tested in triplicate. Fluorescent intensity was measured at 470 nM with the microplate fluorescence reader FLx800 (Bio-Tek Instruments, Inc., Winooski, Vt.). A FITC labeled dextran with a molecular weight of 3 kDA, 10 kDA, 20 kDA, 40 kDA, 70 kDA and/or 500 kDA was used to assess the ability of individual lipids to deliver a model protein across an epithelia.
Permeation is expressed as percent permeation and was calculated as follows: [formula] [formula] Terms
PBS and 0.3% Triton-X100™ served as […]. […] FD permeation was presented as the percent of FD that crossed from the apical side of the epithelial cell monolayer to the basolateral cell surface.

Data set [4] has the same test system. Kind of data set: Cell viability (MTT assay). The class given is cell-based. Particulars: compared with PBS negative control (Example 5). The protocol:
Cell viability will be assessed using the MTT assay (MTT-100, MatTek kit). This kit measures the uptake and transformation of tetrazolium salt to formazan dye. Thawed and diluted MTT concentrate is prepared 1 hour prior to the end of the dosing period with the lipid by mixing 2 mL of MTT concentrate with 8 mL of MTT diluent. Each cell culture insert is washed twice with PBS containing Ca^+2 and Mg^+2 and then transferred to a new 96-well transport plate containing 100 μL of the mixed MTT solution per well. This 96-well transport plate is then incubated for three hours at 37° C. and 5% CO2. After the three hour incubation, the MTT solution is removed and the cultures are transferred to a second 96-well feeder tray containing 250 μL MTT extractant solution per well. An additional 150 μL of MTT extractan solution was added to the surface of each culture well and the samples sat at room temperature in the dark for a minimum of two hours and maximum of 24 hours. The insert membrane was then pierced with a pipet tip and the solutions in the upper and lower wells were allowed to mix. Two hundred microliters of the mixed extracted solution along with extracted blanks (negative control) was transferred to a 96-well plate for measurement with a microplate reader. The optical density (OD) of the samples was measured at 570 nm with the background subtraction at 650 nm on a plate reader. Cell viability was expressed as a percentage and calculated by dividing the OD readings for treated inserts by the OD readings for the PBS treated inserts and multiplying by 100. For the purposes of this assay, it was assumed that PBS had no effect on cell viability and therefore represented 100% cell viability.
(Formazan colour is commonly taken as a measure of viable cells.)

Setting [5] is: lipid 1000 μM, percent decrease in TER from time zero.
[6] abbreviates: lipid 1000 μM, lower value = greater TER reduction (Table 4).

SMILES strings stand for the structures.

In the case of `CCCCCCCCCCCCCCCC(=O)OC[C@H](COP(=O)([O-])OCC[N+](C)(C)C)OC(=O)CCCCCCCC=O` [16:0-09:0(ALDO)PC, 1-Palmitoyl-2-(9′-oxo-Nonanoyl)-sn-Glycero-3-Phosphocholine], the “Mean TER Reduction 1 hr. Post-treatment” value in data set [1] (setting [5]) is on record as 81%. Further, the LDH levels entry in data set [2] (human, 1 h) is recorded as “below 30%”. Moreover, the “Cytotoxic Effect (LDH) 1 hr. Post-treatments” value in data set [2] (human, 1 h, 1000 μM) turned out to be 10%. For the same molecule, in data set [3] (lipid 1000 μM (Table 5)), the “% FITC-Dextran Permeation FD3” value turned out to be 0%. In data set [4], the “MTT levels (cell viability)” value is given as “MTT levels comparable to that of the PBS negative control”.
For `CCCCCCCCCCCCCCCC(=O)OC[C@H](COP(=O)([O-])OCC[N+](C)(C)C)OC(=O)CCCCCCCC(=O)O` [16:0-09:0(COOH)PC, 1-Palmitoyl-2-Azelaoyl-sn-Glycero-3-Phosphocholine], the “Mean TER Reduction 1 hr. Post-treatment” value in data set [1] (lipid 500 μM) amounted to 92%. Moreover, in data set [2] (human, 1 h), the LDH levels result is on record as “below 30%”. In addition, the “Cytotoxic Effect (LDH) 1 hr. Post-treatments” value in data set [2] (human, 1 h, 500 μM) was 9%. In addition, the “% FITC-Dextran Permeation FD3” value in data set [3] (lipid 500 μM (Table 5)) was 3%. In addition, in data set [4], the “MTT levels (cell viability)” value is “MTT levels comparable to that of the PBS negative control”.
Turning to `CCCCCCCCCCCCCCCCCCOC[C@H](COP(=O)([O-])OCC[N+](C)(C)C)OC` [18:0-1:0 Diether PC, 1-O-Octadecyl-2-O-Methyl-sn-Glycero-3-Phosphocholine], the activity at 1000 µM in data set [1] (setting [6]) is 111%. Moreover, the “Mean TER Reduction 1 hr. Post-treatment” value in data set [1] (lipid 500 μM) is on record as 89%; in data set [1] (setting [5]) it was 99%. For the same molecule, the “Cytotoxic Effect (LDH) 1 hr. Post-treatments” value in data set [2] (human, 1 h, 500 μM) is reported as 26%; in data set [2] (human, 1 h, 1000 μM) it was 50%. The “Mean % Relative Cytotoxic Effect (LDH)” value in data set [2] (human, 1 h, 1000 μM) is given as −1%. Also, the “% FITC-Dextran Permeation FD3” value in data set [3] (lipid 500 μM (Table 5)) came to 5%. For the same molecule, the “Mean % FD3 Permeation” value in data set [3] (lipid 1000 μM) turned out to be 0%. For the same molecule, in data set [4], the “MTT levels (cell viability)” value is “MTT levels comparable to that of the PBS negative control”.
Regarding `CCCCCCCC/C=C\CCCCCCCC(=O)O[C@H](COCCCCCCCCCCCCCCCC)COP(=O)([O-])OCC[N+](C)(C)C` [C16-18:1 PC, 1-O-Hexadecyl-2-Oleoyl-sn-Glycero-3-Phosphocholine], the activity at 1000 µM in data set [1] (setting [6]) worked out at 86%. Besides, in data set [2] (human, 1 h, 1000 μM), the “Mean % Relative Cytotoxic Effect (LDH)” value is reported as −2%. Also, the “Mean % FD3 Permeation” value in data set [3] (lipid 1000 μM) is 0%.
In the same order, the values of `CCCCC/C=C\C/C=C\C/C=C\C/C=C\CCCC(=O)O[C@H](COCCCCCCCCCCCCCCCC)COP(=O)([O-])OCC[N+](C)(C)C` [C16-20:4 PC, 1-O-Hexadecyl-2-Arachidonoyl-sn-Glycero-3-Phosphocholine] are 96%, 0% and 0%.
On to `CC/C=C\C/C=C\C/C=C\C/C=C\C/C=C\CCCC(=O)O[C@H](COCCCCCCCCCCCCCCCC)COP(=O)([O-])OCC[N+](C)(C)C` [C16-20:5 PC, 1-O-Hexadecyl-2-Eicosapentaenoyl-sn-Glycero-3-Phosphocholine], for which, in data set [1] (setting [6]), the “Mean % of Original TER Value” is recorded as 90%. For the same molecule, the “Mean % Relative Cytotoxic Effect (LDH)” value in data set [2] (lipid 1000 μM (Table 4)) was −1%. Also, in data set [3] (lipid 1000 μM), the “Mean % FD3 Permeation” value turned out to be 0%.
In the same order, the values of `CC/C=C\C/C=C\C/C=C\C/C=C\C/C=C\C/C=C\CCC(=O)O[C@H](COCCCCCCCCCCCCCCCC)COP(=O)([O-])OCC[N+](C)(C)C` [C16-22:6 PC, 1-O-Hexadecyl-2-Docosahexaenoyl-sn-Glycero-3-Phosphocholine] are 97%, −1% and 0%.
As for `CCCCCCCCCCCCCCCCCCOC[C@H](COP(=O)([O-])OCC[N+](C)(C)C)OC(=O)CCC` [C18-04:0 PC, 1-O-Octadecyl-2-Butyroyl-sn-Glycero-3-Phosphocholine], in data set [1] (setting [6]), the activity at 1000 µM was 85%. In data set [2] (human, 1 h, 1000 μM), the “Mean % Relative Cytotoxic Effect (LDH)” value is −3%. Further, in data set [3] (lipid 1000 μM), the “Mean % FD3 Permeation” value was 0%.
Turning to `CCCCCCCCCCCCCCCCOC[C@H](COP(=O)([O-])OCC[N+](C)(C)C)OC(=O)NC` [C-PAF, 1-O-Hexadecyl-2-N-Methylcarbamyl-sn-Glycero-3-Phosphocholine], the “Mean % of Original TER Value” in data set [1] (lipid 500 μM (Table 4)) is 10%; in data set [1] (setting [6]), 2%. Besides, the entries for the “Mean % Relative Cytotoxic Effect (LDH)” value in data set [2] (lipid 500 μM (Table 4)) and in data set [2] (lipid 1000 μM (Table 4)) were 11% and 15%, respectively. For the same molecule, the “Mean % FD3 Permeation” value is given as 11% in data set [3] (lipid 500 μM) and 12% in data set [3] (lipid 1000 μM). Moreover, the “permeation of FD3 relative to negative controls” value in data set [3] (text summary of Table 4) is “enhanced the permeation of FD3 above that of the negative controls”.
Consider `CCCCCCCCCCCCC/C=C/[C@@H](O)[C@@H](N)CO[C@@H]1O[C@H](CO)[C@@H](O[C@@H]2O[C@H](CO)[C@H](O)[C@H](O)[C@H]2O)[C@H](O)[C@H]1O` [Lactosyl(β) Sphingosine, D-Lactosyl-β1-1′-D-erythro-Sphingosine], for which, in data set [1] (setting [5]), the “Mean TER Reduction 1 hr. Post-treatment” value turned out to be 95%. Besides, in data set [2] (lipid 1000 μM, percent of Triton-X100 LDH levels), the “Cytotoxic Effect (LDH) 1 hr. Post-treatments” value was 14%. In addition, in data set [3] (lipid 1000 μM), the “% FITC-Dextran Permeation FD10” value is reported as 5% and the “% FITC-Dextran Permeation FD40” value came out at 2%. For the same molecule, the “% FITC-Dextran Permeation FD3” value in data set [3] (lipid 1000 μM (Table 5)) was 8%.

Source of the values: patent publication US20070077283A1, “METHOD OF ENHANCING TRANSMUCOSAL DELIVERY OF THERAPEUTIC COMPOUNDS” (Nastech Pharmaceutical Company Inc., priority 2005, published 2007).
